Measurements: PubChem BioAssay (NCI)
Several values for one entry are separate records, joined by “and”; a condition that tells them apart may be missing. Equal entries are not always repeated.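 Each compound was tested at five concentrations against cells in 96-well plates for 48 hours. GI50 marks 50% less growth. TGI is the concentration that stops growth completely.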

Columns and labels:
Experiment in all cases: NCI-60 cell line screen, 48 h
[1] = test system: SK-MEL-5 melanoma
[2] = test system: HCT-116 colon
[3] = test system: DU-145 prostate
[4] = test system: BT-549 breast
[5] = test system: UO-31 renal
[6] = test system: HCT-15 colon
[7] = test system: OVCAR-4 ovarian
[8] = test system: MOLT-4 leukemia
[9] = test system: SR leukemia
[10] = test system: HOP-92 NSCLC

Row | SMILES | GI50 [1] | TGI [1] | GI50 [2] | TGI [2] | GI50 [3] | TGI [3] | GI50 [4] | TGI [4] | GI50 [5] | TGI [5] | GI50 [6] | TGI [6] | GI50 [7] | TGI [7] | GI50 [8] | TGI [8] | TGI [9] | GI50 [10] | TGI [10] | GI50 [9]
1 | CCN(CC)CCOC(COc1cc(C)cc(C)c1)COc1cc(C)cc(C)c1 | 1.75 µM | 3.19 µM | 3.31 µM | 14.9 µM | 3.4 µM | 13.4 µM | 6.12 µM | 20.7 µM | 2.19 µM | 13 µM | 3.01 µM | 12.4 µM | 2.33 µM | 13.7 µM | 2.08 µM | 5.73 µM | – | – | – | –
2 | COC1C(OC(=O)c2ccc(C)[nH]2)C(O)C(Oc2ccc3c(O)c(NC(=O)c4ccc(O)c(CC=C(C)C)c4)c(=O)oc3c2Cl)OC1(C)C (stereo unspecified) | – | 35.6 µM | – | 33.1 µM | – | 75.4 µM | – | 42.5 µM | – | – | – | 38.1 µM | – | 99.6 µM | – | 45.8 µM | 56.9 µM | – | – | –
3 | CC1[C@@]2(CCC(C)(C)O2)O[C@@H]2C=C3C4CCC5Cc6nc7c(nc6C[C@@]5(C)C4C[C@H](O)[C@@]3(C)[C@]12O)CC1CCC2C3=C[C@H]4O[C@@]5(O[C@@](C)(CO)C[C@@H]5O)C(C)[C@@]4(O)[C@]3(C)[C@@H](O)CC2[C@]1(C)C7 (stereo partly specified) | 0.0165 µM | 0.37 µM and 0.0841 µM | 0.0273 µM | 0.719 µM and 0.493 µM | – | – | – | – | – | 0.114 µM | 0.00907 µM | 0.732 µM and 0.075 µM | 0.0921 µM | 0.81 µM | 0.00141 µM | – | – | 0.00228 µM | – | –
4 | CC(C)(O)C1COC2=C1C(=O)c1ccccc1C2=O (stereo unspecified) | – | 57.4 µM | – | 66.9 µM | – | 43.5 µM | – | 42.9 µM | – | > 100 µM | – | > 100 µM | – | > 100 µM | – | 71.2 µM | – | – | > 100 µM | –
5 | O=C(N/C(=C\c1ccc([N+](=O)[O-])cc1)c1nc2ccccc2s1)c1ccccc1 | – | 63.5 µM | – | > 100 µM | – | – | – | – | – | 56.3 µM | – | > 100 µM | – | 81.3 µM | – | 48 µM | – | – | 68.8 µM | –
6 | CCc1ccc2c(c1)C(=O)c1c-2n(CCCN)c(=O)c2cc(OC)c(OC)cc12 | 1.44 µM | 2.8 µM | – | – | 1.62 µM | 3.07 µM | 1.65 µM | 3.17 µM | 1.74 µM | 3.32 µM | 1.59 µM | 3.01 µM | 1.74 µM | 3.2 µM | 1.75 µM | 3.52 µM | – | 1.33 µM | 2.71 µM | –
7 | O=P(CN1CCOCC1)(c1ccccc1)c1ccccc1 | – | > 100 µM | – | > 100 µM | – | – | – | – | – | > 100 µM | – | > 100 µM | – | > 100 µM | – | > 100 µM | – | – | > 100 µM | –
8 | CCCC1C[C@H]2CCCCN2[C@H]2CCCN12 (stereo partly specified) | – | > 100 µM | – | > 66.2 µM | – | – | – | – | – | > 100 µM | – | > 75.5 µM | – | > 100 µM | – | > 100 µM | > 64 µM | – | > 100 µM | –
9 | Fc1ccccc1CN1COc2c(cc(Cl)c3cccnc23)C1 | – | 3.75 µM | – | 13.2 µM | – | 16.4 µM | – | – | – | 17.7 µM | – | 2.23 µM | – | 4.88 µM | – | 0.758 µM | 3.85 µM | – | 16.8 µM | –
10 | O=C(Nc1ccn(C2CC(O)C(COC(c3ccccc3)(c3ccccc3)c3ccccc3)O2)c(=O)n1)c1ccccc1 (stereo unspecified) | – | 4.67 µM | – | 4.29 µM | – | 17.8 µM | – | – | – | 18.7 µM | – | 6.4 µM | – | 7.88 µM | – | 5.1 µM | 5.34 µM | – | 3.59 µM | –
11 | [Br][Pb]([c]1ccccc1)([c]1ccccc1)[c]1ccccc1 | 0.164 µM | 0.312 µM | 0.176 µM | 0.352 µM | 0.182 µM | 0.37 µM | 0.198 µM | 0.541 µM | 0.141 µM | 0.279 µM | 0.148 µM | 0.329 µM | – | – | 0.22 µM | – | > 100 µM | – | – | 0.103 µM
12 | CCCCCCCCCCCCCCCCCc1nc(Cl)nc(Cl)c1Cl | – | 50.7 µM | – | > 100 µM | – | > 100 µM | – | – | – | > 100 µM | – | > 100 µM | – | > 100 µM | – | > 100 µM | > 100 µM | – | > 100 µM | –
13 | COC(=O)C1=NC(=S)NC(c2ccccc2)C1c1nc2ccccc2o1 (stereo unspecified) | – | – | – | > 50 µM | – | – | – | – | – | > 50 µM | – | > 50 µM | – | > 50 µM | – | > 50 µM | > 50 µM | – | > 50 µM | –
14 | COc1ccc(/C=C/C(=O)c2c(-c3ccccc3)nn(C)c(=O)c2N2CC2C)cc1 (stereo unspecified) | – | > 100 µM | – | > 100 µM | – | – | – | – | – | > 100 µM | – | 80.5 µM | – | 84 µM | – | > 100 µM | – | – | > 100 µM | –
15 | FC(F)(F)c1ccccc1C1SCc2nc3ccccc3n21 (stereo unspecified) | – | – | – | > 100 µM | – | – | – | – | – | > 100 µM | – | – | – | – | – | > 100 µM | > 100 µM | – | 53.3 µM | –
16 | CCn1cc(C(=O)O)c(=O)c2cc(F)c(N3CCN(S(=O)(=O)c4ccc(Cl)cc4Cl)CC3)cc21 | 1.87 µM | 3.93 µM | 3.56 µM | > 100 µM | 2.81 µM | 6.75 µM | 2.64 µM | 7.89 µM | 2.2 µM | 5.77 µM | 2.82 µM | > 100 µM | 2.58 µM | > 100 µM | 3.55 µM | > 100 µM | – | 1.22 µM | 5.22 µM | –
17 | COC(=O)C(=O)C(C(=O)C(=O)Nc1ccc([N+](=O)[O-])cc1)c1nc2ccccc2[nH]c1=O (stereo unspecified) | – | > 100 µM | – | > 100 µM | – | – | – | – | – | > 100 µM | – | > 100 µM | – | > 100 µM | – | > 100 µM | – | – | > 100 µM | –
18 | O=C(/C=C/c1ccccc1)c1ccc(Cl)cc1Cl | – | 31.4 µM | – | 24 µM | – | – | – | – | – | > 100 µM | – | 26.4 µM | – | 46.1 µM | – | 42.9 µM | – | – | 69.3 µM | –
19 | COC(=O)CC1(O)C(=O)OCc2c1cc1n(c2=O)Cc2c-1nc1ccccc1c2OC (stereo unspecified) | – | 2.74 µM | – | > 100 µM | – | – | – | – | – | 30.5 µM | – | > 100 µM | – | > 36.1 µM | – | 0.165 µM | < 0.0136 µM | – | 92.2 µM | –
20 | Cc1cc(N2CCC(N3CCCC3)CC2)nc(/N=C(\N)Nc2ccc(Cl)c(Cl)c2)n1 | 1.65 µM | 3.02 µM | 1.93 µM | 3.63 µM | 1.75 µM | 3.44 µM | 2.44 µM | 6.37 µM | 1.44 µM | 2.85 µM | 1.64 µM | 3.64 µM | 2.02 µM | 3.99 µM | 3.32 µM | > 100 µM | > 100 µM | – | – | 0.255 µM
